Experiments:
[1] = tested on: melatonin binding sites in cytosol of stromal cells from human BPH prostate tissue; assay: Specific binding of 125I-melatonin to cytosol from stromal cells of human BPH tissue; conditions: for Bound in Stromal (specific binding, mean): 4 patients
Method: (§1) Tissue specimens were obtained from prostate glands removed by open surgery from patients suffering from urinary obstruction due to benign prostatic hyperplasia. Epithelial and stromal cells were separated from the tissue by filtration through a stainless steel mesh. The cells were then washed with saline and collected by centrifugation (1000 g, 5 min). […] The two preparations were separately homogenized at 4° C. in 0.05 M Tris-HCl, pH 7.4. Each homogenate was spun at 100,000 g for 1 hour at 4° C. and the supernatant was removed with a Pasteur pipette. Melatonin binding was measured by incubating 300 microliters of supernatant containing ca. 20 mcg. protein with carrier-free ^125 I-melatonin at concentrations of 0-1 nM, for 1 hour at 37° C. in the presence of 0.05% Triton X-100. After the incubation period, bound ^125 I-melatonin was separated from free ^125 I-melatonin by vacuum filtration using GFF glass fiber filters saturated with polyethylenimine. Protein concentrations were measured by the method of Lowry et al (J. Biol. Chem., 193: 265, 1951) using bovine serum albumin as a standard. Non-specific binding was determined by incubating the supernatant samples with the specified concentrations of ^125 I-melatonin, but in the presence of a vast excess (10 micromolar) nonradioactive melatonin. These experiments were repeated four times, using specimens from four different patients, with similar results.

[2] = tested on: melatonin binding sites in cytosol of epithelial cells from human BPH prostate tissue; assay: Specific binding of 125I-melatonin to cytosol from epithelial cells of human BPH tissue; conditions: for Bound in Epithelial (specific binding, mean): 4 patients
Method: as §1, with “melatonin.” for “melatonin. These experiments were repeated four times, using specimens from four different patients, with similar results.”

[3] = tested on: BPH patients; assay type: in vivo, human
Method: In a clinical trial which commenced in April, 1993, 23 BPH patients were recruited and divided into two groups, one group receiving 5 mg melatonin in a sustained release formulation and the other group 50 mg melatonin in a fast release formulation, these dosages being given daily, in the evening. One patient withdrew from the study after 7 days of treatment. […] Up to August, 1993, 6 patients finished 3 months' treatment with melatonin, and the remainder had 1-2 months treatment. All patients will continue the treatment with melatonin until 6 months is completed.

[4] = tested on: adult castrated rats; assay: Experiment 1: androgen-dependent regrowth of accessory sex organs in adult castrated rats; assay type: in vivo, rat; conditions: testosterone propionate 1 mg/kg/day s.c. 4 days, melatonin about 40 mcg per day in drinking water
Method: The effects of orally administered melatonin on androgen-dependent prostatal regrowth in adult castrated rats was investigated. Male rats (2.5 months old) were castrated under anesthesia. After 7 days, during which the average weight of the prostate decreased by ca. 60%, the rats were given daily for 4 days, a subcutaneous injection of either oil vehicle (control) or oil vehicle containing testosterone propionate (1 mg/kg body weight per day, at one hour before lights-off). […] In order to determine the weight of the relevant organs, the rats were sacrificed at the end of the 4 days following the first 7 days. […] These studies indicate a direct inhibitory effect of orally administered melatonin on prostatal growth in adult rats, contrary to the dogma that melatonin can affect the pubertal development of the rat only during the first (prepubertal) 40 days of life (Lang et al. Endocrinology,112, 1578-1584, 1983).

[5] = tested on: 8-10 month old adult rats; assay: Experiment 4: long term (~18 months) melatonin via drinking water in adult rats; assay type: in vivo, rat
Method: The effects on 8-10 month old adult rats, of long term (~18 months) administration of melatonin via the drinking water (4 mg./l.), on the survival, on central melatonin binding sites, and on serum testosterone, were investigated.

[6] = tested on: aged male rats; assay: Experiment 3: melatonin via drinking water for 30 days in aged male rats; assay type: in vivo, rat; conditions: 23-month old male rats
Method: The impact of exogenously administered melatonin on central melatonin binding sites and serum testosterone in aged male rats was investigated. Thus, 23-month old male rats were treated with melatonin via the drinking water for 30 days.

[7] = tested on: BPH patients; assay: Example II: ultrastructural morphology of the human prostate after 30 days of melatonin; assay type: in vivo; conditions: 5 mg sustained release daily in the evening, 30 days prior to prostatectomy, five BPH patients
Excerpt: Specimens from the prostate glands removed from the treated patients, and from control untreated patients of the same status, were fixed in glutaraldehyde immediately after the excision, embedded in "Epon" and analyzed by electron microscopy.

[8] = tested on: 3α reductase; conditions: BPH tissue samples; cited from earlier work
[9] = tested on: patient with benign prostate hypertrophy; assay: Example I: BPH patient on 0.5 mg sustained release melatonin daily; assay type: in vivo, human
Method: Thus, the patient's PSA level was elevated, and their prostatic acid phosphatase level was slightly above normal. […] Diagnosis after needle biopsy was benign prostate hypertrophy.
The patient began taking 0.5 mg melatonin in the sustained release form daily at 21:00-22:00 hours on Feb. 1, 1992; on a continuing basis, i.e. medication was continued essentially indefinitely. […] Examination of the patient by ultrasonographic scanning on Oct. […] By Jun.

[10] = tested on: human subjects; conditions: cited from earlier work
[11] = tested on: male and female rats; conditions: oral 16-40 mcg. per day; cited from earlier work
[12] = tested on: pinealectomized rats; conditions: orally administered; cited from earlier work
[13] = tested on: castrated rats; hypophysectomized animals; conditions: cited from earlier work
[14] = tested on: male volunteers suffering from BPH; assay: Experiment 2: placebo-controlled study of oral melatonin in male volunteers suffering from BPH; assay type: in vivo, human; conditions: 5 mg melatonin/day oral at about 10 p.m.; preliminary results
[15] = tested on: 5α reductase; conditions: BPH tissue samples; cited from earlier work
[16] = tested on: melatonin binding sites in the rat brain; assay: Experiment 5: melatonin binding sites in rat brain, sham-operated and pinealectomized rats; assay type: in vivo
[17] = patients who had completed 3 months' treatment
[18] = 4 mg./l. in drinking water, ~18 months
[19] = pinealectomized rats, daily injections

COc1ccc2[nH]c([125I])c(CCNC(C)=O)c2c1 [^125 I-melatonin]
Bound in Stromal (specific binding, mean) ([1]; 125I-melatonin 0.05 nM): 0.6 fmol/mg protein
Bound in Stromal (specific binding, mean) ([1]; 125I-melatonin 0.10 nM): 2.5 fmol/mg protein
Bound in Stromal (specific binding, mean) ([1]; 125I-melatonin 0.20 nM): 3.7 fmol/mg protein
Bound in Stromal (specific binding, mean) ([1]; 125I-melatonin 0.30 nM): 4.3 fmol/mg protein
Bound in Stromal (specific binding, mean) ([1]; 125I-melatonin 0.50 nM): 8.8 fmol/mg protein
Bound in Stromal (specific binding, mean) ([1]; 125I-melatonin 1.00 nM): 16.2 fmol/mg protein
Bound in Epithelial (specific binding, mean) ([2]; 125I-melatonin 0.05 nM): 6.25 fmol/mg protein
Bound in Epithelial (specific binding, mean) ([2]; 125I-melatonin 0.10 nM): 12.5 fmol/mg protein
Bound in Epithelial (specific binding, mean) ([2]; 125I-melatonin 0.20 nM): 31.3 fmol/mg protein
Bound in Epithelial (specific binding, mean) ([2]; 125I-melatonin 0.30 nM): 45.6 fmol/mg protein
Bound in Epithelial (specific binding, mean) ([2]; 125I-melatonin 0.50 nM): 66.9 fmol/mg protein
Bound in Epithelial (specific binding, mean) ([2]; 125I-melatonin 1.00 nM): 93.1 fmol/mg protein

COc1ccc2[nH]cc(CCNC(C)=O)c2c1 [melatonin]
urinary flow (subjective) ([3]; 5 mg sustained release or 50 mg fast release daily in the evening, all patients but one who withdrew): subjective improvement of urinary flow
decrease in the PSA level [3, 17]: approximately 10%
enlargement of the prostate gland [3, 17]: no further enlargement of the prostate gland
weight / regrowth of seminal vesicles [4]: did not significantly affect regrowth of the seminal vesicles
weight / regrowth of ventral prostate [4]: prevented the testosterone-mediated regrowth of the prostate
weight of epididemis [4]: had hardly any effect on the epididemis
melatonin binding sites in brain of aged rats [5, 18]: significantly increased melatonin binding sites in the medulla-pons and hypothalamus
number of rats surviving at the age of 24-29 months [5, 18]: markedly increased the number of rats surviving
serum testosterone levels vs untreated controls [5, 18]: significantly higher
survival at age 27-29 months ([5]; 4 mg./l. in drinking water, control 7 of 16): these continued to live at age 27-29 months
animals surviving at age 26-28 months ([5]; 4 mg./l. in drinking water, control 8 of 16, P=0.01): 13 of 15 animals
pneumonia ([5]; aged survivors, 5 of 7 control survivors had severe pneumonia): either did not suffer from pneumonia, or had only very weak symptoms
melatonin binding sites in brain areas [6]: markedly increased melatonin binding sites in the hypothalamus, medulla-pons, thalamus and cortex
serum testosterone levels vs untreated controls [6]: did not significantly differ
suppressive effect of testosterone on melatonin binding sites in hypothalamus and hippocampus [6]: attenuated a suppressive effect of testosterone on melatonin binding sites
concentration of binding sites in stromal cytosol, factor lower than epithelial ([1]; relative to 140 fmol/mg in epithelial cytosol): approximately 10 x
specific binding in the stromal preparations ([1]; stromal cell cytosol): very low
Kd ([2]; 125I-melatonin probe, epithelial cell cytosol, 1 hour at 37° C., read-out: dissociation constant): 600 pM
binding site density ([2]; epithelial cell cytosol): 140 fmol/mg cytosol protein
ultrastructural morphology of prostate specimens (electron microscopy) [7]: evidence for secretion of fresh collagen bundles
3α reductase activity [8]: stimulate 3α reductase activity
urinary flow (subjective) ([9]; 0.5 mg sustained release daily at 21:00-22:00, 6 days after initiation): subjective improvement in urinary flow
estimated size of the prostate gland (ultrasonographic scanning) ([9]; 0.5 mg sustained release daily, Oct. 22, 1992, 55 g before and after): no change in estimated size of the prostate gland
residual bladder urine volume retained after two attempts to empty the bladder ([9]; 0.5 mg sustained release daily, Oct. 22, 1992, 100 ml before treatment): zero
toxicity ([10]; human, in vivo): no significant toxicity has been observed
circulating testosterone levels ([10]; humans): does not increase circulating testosterone levels
pubertal development, including prostate development in the males [11]: delayed pubertal development of male and female rats
ventral prostate and seminal vesicle weight [12]: lowered ventral prostate and seminal vesicle weight
weight of testes and ventral prostate gland ([13]; hypophysectomized animals): decreases the weight of both the testes and the ventral prostate gland
regression of the ventral prostate gland ([13]; subcutaneous 750 mcg., castrated rats, in presence of exogenous testosterone): enhances regression of the ventral prostate gland
urinary flow [14]: immediate improvement in urinary flow in some of the patients
5α reductase activity [15]: did not affect 5α reductase activity
125I-melatonin binding in the various brain areas ([16]; pinealectomized rats, melatonin via drinking water, any time recorded): had no effect on ^125 I-melatonin binding
125I-melatonin binding in hippocampus and midbrain ([16]; sham-operated rats, melatonin via drinking water, 13 hours after lights-on): decrease in ^125 I-melatonin binding

O=C1Nc2ccc(Cl)cc2C(c2ccccc2)=NC1O (stereo not shown) [oxazepam]
melatonin binding at other times of the day [16, 19]: did not significantly effect the binding at other times of the day
melatonin binding sites at 19 hours after lights-on [16, 19]: decreased melatonin binding sites at 19 hours after lights-on
densities of melatonin binding sites in brain areas, time of peak ([16]; sham-operated rats, daily injections 14 days, untreated peak at 13 hours after lights-on): higher at midnight

CCC(=O)O[C@H]1CC[C@H]2[C@@H]3CCC4=CC(=O)CC[C@]4(C)[C@H]3CC[C@]12C [testosterone, testosterone propionate]
weight / regrowth of seminal vesicles [4]: increased the weight of the seminal vesicles and ventral prostate
weight / regrowth of ventral prostate [4]: increased the weight of the seminal vesicles and ventral prostate
weight of epididemis [4]: had no effect on the epididemis

— patent US6048888A, “Method and pharmaceutical formulation for treating benign prostatic hyperplasia” (priority 1993, dated 2000)
